Experiments:
[1] = target: T1, 8R,11S-linoleate diol synthase (8R,11S-LDS; PC_1) (Penicillium rubens, UniProt B6HQI5); assay: UV-visible spectroscopy, heme/protein absorption ratio (A410/A280); assay type: binding; settings: heme occupancy of the purified enzyme
T1 construct: gene Pc22g06980; full length, 1,074 residues, C-terminal His6 (pET-21a), E. coli ER2566, HisTrap purified; calculated 120,998 Da; N-terminal DOX domain 1-669, C-terminal P450 hydroperoxide isomerase domain 670-1074

[2] = target: T1, 8R,11S-linoleate diol synthase (8R,11S-LDS; PC_1); assay: HPLC of dihydroxy fatty acid product, Hanes-Woolf plot; assay type: biochemical; settings: whole enzyme activity: overall conversion to dihydroxy fatty acid by sequential DOX and hydroperoxide isomerase domains; 25°C, 50 mM EPPS pH 8.0
[3] = target: T1, 8R,11S-linoleate diol synthase (8R,11S-LDS; PC_1); assay: O2 uptake, Clark-type oxygen monitor, Hanes-Woolf plot; assay type: biochemical; settings: DOX activity (N-terminal dioxygenase domain of the whole enzyme); co-substrate O2; 50 mM EPPS pH 8.0, 25°C
[4] = substrate: CCCCCC/C=C\CCCCCCCC(=O)O; assay: as above; assay type: biochemical, Penicillium rubens; settings: DOX activity (N-terminal dioxygenase domain of the whole enzyme), co-substrate O2, 50 mM EPPS pH 8.0, 25°C
Text: O2 uptake, Clark-type oxygen monitor, Hanes-Woolf plot on 8R,11S-linoleate diol synthase (8R,11S-LDS; PC_1)

| Molecule | Km [2] [µM] | Km [3] [µM] | further results |
| --- | --- | --- | --- |
| C=CC1=C(C)C2=Cc3c(C=C)c(C)c4[n]3[Fe][n]3c(c(C)c(CCC(=O)O)c3=CC3=NC(=C4)C(C)=C3CCC(=O)O)=CC1=N2 [heme] | – | – | UV-visible spectroscopy, heme/protein absorption ratio (A410/A280) [1]: Heme occupancy of the wild-type and H999A, C1001S, and H999A-C1001S variant enzymes |
| CCCCC/C=C\C/C=C\CCCCCCCC(=O)O [linoleic acid] | 86.1 ± 1.8 | 18.9 ± 0.6 | – |
| CCCCCCCC/C=C\CCCCCCCC(=O)O [oleic acid] | – | 34.3 ± 1.2 | – |
| CC/C=C\C/C=C\C/C=C\CCCCCCCC(=O)O [α-linolenic acid] | 138 ± 3.2 | 69.9 ± 0.3 | – |
| 8R,11S-linoleate diol synthase (8R,11S-LDS; PC_1) (Penicillium rubens Wisconsin 54-1255) (protein, full length, 1,074 residues, C-terminal His6 (pET-21a), E. coli ER2566, HisTrap purified; calculated 120,998 Da; N-terminal DOX domain 1-669, C-terminal P450 hydroperoxide isomerase domain 670-1074) MAEKESNSSGKIAQLEQVVAAALRPLPTQTGDGSYVQEPTVTGLAKDLLNFDLKDAKTLADMAKTAVTGKAVNDRDYIMERVIQLASGLPSTSRNGKELTNTFLTQLWGDLEHPPISYLGRDAAYRKADGSGNNTFWPQIGAANTPYARSVRPKTMQPVALPEPEALFDSLLARKDFKEHPNKISSVLFHLASIIIHDLFQTDPRDQTKSLTSSYLDLSPLYGNNQKEQDTVRAFKDGKLKPDCFSTKRVLGFPPGVGVILIMFNRFHNSVVTQLAAINEGGRFTKPDESNAEAYATWDNDLFQTARLVTCGLYINIILKDYVRTILNVNRTDSLWSLDPRADIRDGLLGEAPAQATGNQVSAEFNLVYRWHSCVSSRDEKWSEDLYKEIFDGKDPKEISMQQFTGGLRQWESKLPADPQERPFAKLQRQADGKFDDNDLVKIFEESVEDPAGAFGALNVPDVFRGIEVLGIKQARSWNLATLNEFRQYFGLAAYQTFEEINPDPYVANQLKHFYDHPDLVELYPGLVVEETKQAMTPGSGLCTNFTTSRAILSDAVALVRGDRFYTVDFTPKHLTNWAFNEINNDVSVDGGQVFYKLILKAFPNHFRGDSVYAHFPLVVPDENKKILTSLGKVKTYSFDRPFYKAPPLFINSHSACTKILKDQEGFKVVWGEKIQFLMENSGRPYGRDFALSGDLPANAASRKMIGAALHRDKWESEVKAFYEDITLKLLERNSFKVAGVNQVDIVRDVAVLAQVNFCANVFSLSLKTESNPRGVFSEQELYQILAVIFASIFYDVDVSKSLQLCQTARNVAQQLGELTLANVELVAKTGFISNLVNRLHRHDILSEYGIHMIQRLLDSQLPVKDVVWSHILPTAGALVANQGQLFSQCIDYYLSEEAAEHLAEIQRLSREDTPEADELLVRYFMEGARLRCSVALPRFATKPTVVDDNGKRVTLKAGQEIICNLVVAGRDPVAFPDPDKVRLDRDMSLYTHFGFGPHECLGVKMCPLALSTMLKVLGRLDNVRRAPGPQGHLKRLDGLGGIAMYMDAEHSSFSPFPMTMKIQWDGDLPARRE | – | – | Km [4]: 20.0 ± 0.5 µM; kcat [4]: 81.8 ± 3.77 s⁻¹; kcat/Km [4]: 4.32e+06 M⁻¹ s⁻¹ |

From paper PMC4727417, “Characterization of a novel 8R,11S-linoleate diol synthase from Penicillium chrysogenum by identification of its enzymatic products” (Journal of Lipid Research, 2016)
